Measured values from publication PMC10177510, “A Multicenter, Open-Label, Phase I/II Study of FN-1501 in Patients with Advanced Solid Tumors” (Cancers, 2023).

Tested on: advanced solid tumors
Experiment: Anti-tumor activity in patients (RECIST best response, PFS, OS)
Format: in vivo, human
Protocol: Among 64 pts enrolled in the trial, 16 failed screening and 48 (75%) were treated with FN-1501 at one of the dose levels tested. Eligible pts were ≥18 years of age with (a) relapsed or refractory AML that had exhausted or was ineligible for therapeutic options, or with ≥5% blasts in the bone marrow according to World Health Organization (WHO) 2016 criteria; or (b) solid tumors evaluable per RECIST v1.1 that had exhausted (or were ineligible for) therapeutic options likely to convey clinical benefit. Other inclusion criteria included Eastern Cooperative Oncology Group (ECOG) performance status (PS) of <2 and life expectancy ≥3 months. Pts with a clinically controlled central nervous system (CNS) tumor or metastasis and adequate organ function were eligible to participate. Ongoing use of strong CYP3A inhibitors or inducers was exclusionary unless participants were willing and able to change to use of an equivalent medication without this profile. Other exclusion criteria included current or recent major surgical procedures, anticancer therapy (chemotherapy, immunotherapy), biologic, live virus vaccine, or investigational therapy within 21 days prior to initiation of the study treatment. For patients in the AML cohort, acute promyelocytic leukemia (APML), chronic myelogenous leukemia in blast crisis (BCR-ABL), or active CNS leukemia were exclusionary.
Descriptive statistics were used for all safety, PK, and efficacy parameters. Data were summarized using descriptive statistics (number of pts, mean, median, standard deviation, minimum, and maximum) for continuous variables and using frequencies and percentages for discrete variables. Time-to-event variables were summarized using Kaplan–Meier methods and figures for the estimated median time.

## CN1CCN(Cc2ccc(NC(=O)c3[nH]ncc3Nc3ncnc4[nH]ccc34)cc2)CC1 [FN-1501]
2.5 mg/day, N = 4, ITT
  Complete Response, best RECIST response, n (%): 0
  DCR: 0.0%
  Landmark Progression Free Survival Rate at 3 months (Table S6, Overall Survival): 37.5%
  Landmark Progression Free Survival Rate at 6 months (Table S6, Overall Survival): 37.5%
  Landmark Progression Free Survival Rate at 9 months (Table S6, Overall Survival): 37.5%
  Landmark Progression Free Survival Rate at 12 months (Table S6, Overall Survival): 37.5%
  Median overall survival: 2.0 months
  Median progression-free survival: 1.8 months
  ORR: 0.0%
  Partial Response, best RECIST response, n (%): 0
  Progression Free Survival Rate at 3 months: 0.0%
  Progression Free Survival Rate at 6 months: 0.0%
  Progression Free Survival Rate at 9 months: 0.0%
  Progression Free Survival Rate at 12 months: 0.0%
  Progressive Disease, best RECIST response, n (%): 3
  Stable Disease, best RECIST response, n (%): 0
5 mg/day, N = 3, ITT
  Complete Response, best RECIST response, n (%): 0
  DCR: 0.0%
  Landmark Progression Free Survival Rate at 3 months (Table S6, Overall Survival): 50.0%
  Landmark Progression Free Survival Rate at 6 months (Table S6, Overall Survival): 0.0%
  Landmark Progression Free Survival Rate at 9 months (Table S6, Overall Survival): 0.0%
  Landmark Progression Free Survival Rate at 12 months (Table S6, Overall Survival): 0.0%
  Median overall survival: 2.6 months
  Median progression-free survival: 1.7 months
  ORR: 0.0%
  Partial Response, best RECIST response, n (%): 0
  Progression Free Survival Rate at 3 months: 0.0%
  Progression Free Survival Rate at 6 months: 0.0%
  Progression Free Survival Rate at 9 months: 0.0%
  Progression Free Survival Rate at 12 months: 0.0%
  Progressive Disease, best RECIST response, n (%): 2
  Stable Disease, best RECIST response, n (%): 0
10 mg/day, N = 5, ITT
  Complete Response, best RECIST response, n (%): 0
  DCR: 20.0%
  Landmark Progression Free Survival Rate at 3 months (Table S6, Overall Survival): 60.0%
  Landmark Progression Free Survival Rate at 6 months (Table S6, Overall Survival): 60.0%
  Landmark Progression Free Survival Rate at 9 months (Table S6, Overall Survival): 60.0%
  Landmark Progression Free Survival Rate at 12 months (Table S6, Overall Survival): 60.0%
  Median progression-free survival: 1.4 months
  ORR: 0.0%
  Partial Response, best RECIST response, n (%): 0
  Progression Free Survival Rate at 3 months: 20.0%
  Progression Free Survival Rate at 6 months: 0.0%
  Progression Free Survival Rate at 9 months: 0.0%
  Progression Free Survival Rate at 12 months: 0.0%
  Progressive Disease, best RECIST response, n (%): 2
  Stable Disease, best RECIST response, n (%): 1 (20)
15 mg/day, N = 3, ITT
  Complete Response, best RECIST response, n (%): 0
  DCR: 100.0%
  Median progression-free survival: 4.1 months
  ORR: 0.0%
  Partial Response, best RECIST response, n (%): 0
  Progression Free Survival Rate at 6 months: 33.3%
  Progression Free Survival Rate at 9 months: 0.0%
  Progression Free Survival Rate at 12 months: 0.0%
  Progressive Disease, best RECIST response, n (%): 0
  Stable Disease, best RECIST response, n (%): 3 (100)
22.5 mg/day, N = 4, ITT
  Complete Response, best RECIST response, n (%): 0
  DCR: 50.0%
  Landmark Progression Free Survival Rate at 3 months (Table S6, Overall Survival): 50.0%
  Landmark Progression Free Survival Rate at 6 months (Table S6, Overall Survival): 50.0%
  Landmark Progression Free Survival Rate at 9 months (Table S6, Overall Survival): 25.0%
  Landmark Progression Free Survival Rate at 12 months (Table S6, Overall Survival): 25.0%
  Median overall survival: 5.4 months
  Median progression-free survival: 5.0 months
  ORR: 0.0%
  Partial Response, best RECIST response, n (%): 0
  Progression Free Survival Rate at 3 months: 50.0%
  Progression Free Survival Rate at 6 months: 50.0%
  Progression Free Survival Rate at 9 months: 25.0%
  Progression Free Survival Rate at 12 months: 25.0%
  Progressive Disease, best RECIST response, n (%): 2 (50)
  Stable Disease, best RECIST response, n (%): 2 (50)
30 mg/day, N = 3, ITT
  Complete Response, best RECIST response, n (%): 0
  DCR: 100.0%
  Median progression-free survival: 3.4 months
  ORR: 0.0%
  Partial Response, best RECIST response, n (%): 0
  Progression Free Survival Rate at 3 months: 50.0%
  Progression Free Survival Rate at 6 months: 0.0%
  Progression Free Survival Rate at 9 months: 0.0%
  Progression Free Survival Rate at 12 months: 0.0%
  Progressive Disease, best RECIST response, n (%): 0
  Stable Disease, best RECIST response, n (%): 3 (100)
40 mg/day cohort, efficacy evaluable population
  Patients with best response of partial response (PR) by RECIST: 25%
40 mg/day, N = 4, ITT
  Complete Response, best RECIST response, n (%): 0
  DCR: 50.0%
  Landmark Progression Free Survival Rate at 3 months (Table S6, Overall Survival): 75.0%
  Landmark Progression Free Survival Rate at 6 months (Table S6, Overall Survival): 75.0%
  Landmark Progression Free Survival Rate at 9 months (Table S6, Overall Survival): 75.0%
  Landmark Progression Free Survival Rate at 12 months (Table S6, Overall Survival): 75.0%
  Median progression-free survival: 2.6 months
  ORR: 25.0%
  Partial Response, best RECIST response, n (%): 1
  Progression Free Survival Rate at 3 months: 33.3%
  Progression Free Survival Rate at 6 months: 0.0%
  Progression Free Survival Rate at 9 months: 0.0%
  Progression Free Survival Rate at 12 months: 0.0%
  Progressive Disease, best RECIST response, n (%): 1 (25)
  Stable Disease, best RECIST response, n (%): 1 (25)
54 mg/day, N = 3, ITT
  Complete Response, best RECIST response, n (%): 0
  DCR: 0.0%
  Landmark Progression Free Survival Rate at 3 months (Table S6, Overall Survival): 66.7%
  Landmark Progression Free Survival Rate at 6 months (Table S6, Overall Survival): 0.0%
  Landmark Progression Free Survival Rate at 9 months (Table S6, Overall Survival): 0.0%
  Landmark Progression Free Survival Rate at 12 months (Table S6, Overall Survival): 0.0%
  Median overall survival: 3.2 months
  Median progression-free survival: 1.4 months
  ORR: 0.0%
  Partial Response, best RECIST response, n (%): 0
  Progression Free Survival Rate at 3 months: 0.0%
  Progression Free Survival Rate at 6 months: 0.0%
  Progression Free Survival Rate at 9 months: 0.0%
  Progression Free Survival Rate at 12 months: 0.0%
  Progressive Disease, best RECIST response, n (%): 2
  Stable Disease, best RECIST response, n (%): 0
72 mg/day, N = 3, ITT
  Complete Response, best RECIST response, n (%): 0
  DCR: 0.0%
  Median progression-free survival: 1.3 months
  ORR: 0.0%
  Partial Response, best RECIST response, n (%): 0
  Progression Free Survival Rate at 3 months: 0.0%
  Progression Free Survival Rate at 6 months: 0.0%
  Progression Free Survival Rate at 9 months: 0.0%
  Progression Free Survival Rate at 12 months: 0.0%
  Progressive Disease, best RECIST response, n (%): 3
  Stable Disease, best RECIST response, n (%): 0
96 mg/day, N = 5, ITT
  Complete Response, best RECIST response, n (%): 0
  DCR: 40.0%
  Landmark Progression Free Survival Rate at 3 months (Table S6, Overall Survival): 75.0%
  Landmark Progression Free Survival Rate at 6 months (Table S6, Overall Survival): 37.5%
  Landmark Progression Free Survival Rate at 9 months (Table S6, Overall Survival): 37.5%
  Landmark Progression Free Survival Rate at 12 months (Table S6, Overall Survival): 37.5%
  Median overall survival: 3.1 months
  Median progression-free survival: 2.7 months
  ORR: 0.0%
  Partial Response, best RECIST response, n (%): 0
  Progression Free Survival Rate at 3 months: 37.5%
  Progression Free Survival Rate at 6 months: 0.0%
  Progression Free Survival Rate at 9 months: 0.0%
  Progression Free Survival Rate at 12 months: 0.0%
  Progressive Disease, best RECIST response, n (%): 0
  Stable Disease, best RECIST response, n (%): 2 (40)
128 mg/day, N = 3, ITT
  Complete Response, best RECIST response, n (%): 0
  Median progression-free survival: 3.1 months
  ORR: 0.0%
  Partial Response, best RECIST response, n (%): 0
  Progression Free Survival Rate at 3 months: 66.7%
  Progression Free Survival Rate at 6 months: 0.0%
  Progression Free Survival Rate at 9 months: 0.0%
  Progression Free Survival Rate at 12 months: 0.0%
  Progressive Disease, best RECIST response, n (%): 1 (33)
  Stable Disease, best RECIST response, n (%): 1 (33)
170 mg/day, N = 4, ITT
  Complete Response, best RECIST response, n (%): 0
  DCR: 50.0%
  Median progression-free survival: 2.2 months
  ORR: 0.0%
  Partial Response, best RECIST response, n (%): 0
  Progression Free Survival Rate at 3 months: 33.3%
  Progression Free Survival Rate at 6 months: 33.3%
  Progression Free Survival Rate at 9 months: 33.3%
  Progression Free Survival Rate at 12 months: 0.0%
  Progressive Disease, best RECIST response, n (%): 1 (25)
  Stable Disease, best RECIST response, n (%): 2 (50)
226 mg/day, N = 4, ITT
  Complete Response, best RECIST response, n (%): 0
  DCR: 0.0%
  Landmark Progression Free Survival Rate at 3 months (Table S6, Overall Survival): 66.7%
  Landmark Progression Free Survival Rate at 6 months (Table S6, Overall Survival): 66.7%
  Landmark Progression Free Survival Rate at 9 months (Table S6, Overall Survival): 66.7%
  Landmark Progression Free Survival Rate at 12 months (Table S6, Overall Survival): 66.7%
  Median progression-free survival: 1.1 months
  ORR: 0.0%
  Partial Response, best RECIST response, n (%): 0
  Progression Free Survival Rate at 3 months: 0.0%
  Progression Free Survival Rate at 6 months: 0.0%
  Progression Free Survival Rate at 9 months: 0.0%
  Progression Free Survival Rate at 12 months: 0.0%
  Progressive Disease, best RECIST response, n (%): 1 (25)
  Stable Disease, best RECIST response, n (%): 0
1 patient, 40 mg/day, advanced endometrial cancer
  Duration of partial response: 4.2 months
Total, N = 48, ITT
  Complete Response, best RECIST response, n (%): 0
  DCR: 33.3%
  Landmark Progression Free Survival Rate at 3 months (Table S6, Overall Survival): 71.7%
  Median overall survival: 8.2 months
  Median progression-free survival: 1.8 months
  ORR: 2.1%
  Partial Response, best RECIST response, n (%): 1 (2)
  Progression Free Survival Rate at 3 months: 31.1%
  Progression Free Survival Rate at 6 months: 11.3%
  Progression Free Survival Rate at 9 months: 5.7%
  Progression Free Survival Rate at 12 months: 2.8%
  Progressive Disease, best RECIST response, n (%): 18
  Stable Disease, best RECIST response, n (%): 15 (31)
All doses
  Patients with progressive disease (PD) as best response by RECIST: 38%
  Patients with stable disease (SD) as best response by RECIST: 31%
  Remaining response-evaluable pts with PD: 67%
